Source: patent US20110129544A1, “Bone/Cartilage Formation-Stimulation Agent” (priority 2007, published 2011)

Tests used:
[1] = test system: osteoblastic cell strain MC3T3-E1; experiment: Calcified matrix formation (alizarin red) of cultured osteoblastic cell on differentiation medium; type: cell-based, mouse
Protocol: Using an osteoblastic cell strain MC3T3-E1 originating from a mouse skull bone, an action to osteoblactic cell differentiation was checked. MC3T3-E1 cell was cultured on α-MEM (growth medium) containing 5% fetal bovine serum (FBS) and 10 μg/ml gentamicin. When the cell became confluent, the cell was collected using 0.25% trypsin solution, and was subjected to seeding to a 48-well plate at 1×10^4/0.5 mL/well with the growth medium. After 24 hours passed from the cultivation, the culture medium was replaced with a growth medium (differentiation medium) containing 50 μg/mL ascorbic acid, 10 mmol/L β-glycerosphoric acid, and 10 nmol/L dexamethasone. At the same time, CS-A, CS-B, CS-C, CS-E, CS-H or CPS was added to the medium. After 16 days passed from when the medium was replaced with the differentiation medium, a culture supernatant was eliminated, the cell was rinsed by PBS (−), dissolved by 1% Nonidet P-40 (NP-40, registered trademark), and a cell lysate was collected. The cell on a plate was fixed by 15% formalin, a calcified matrix was dyed by 40 mmol/L alizarin red dyeing (pH 4.2)[…], and rinsed by pure water. Alizarin red pigments in the plate were dissolved by 10% formic acid, and light absorption at a wavelength of 415 nm was observed.
An osteoblastic cell strain MC3T3-E1 was cultured on α-MEM (growth medium) containing 5 FBS and 10 μg/mL gentamicin. When the cell became confluent, the cell was collected by 0.25 trypsin solution, and was subjected to seeding to a 96-well plate at 1×10^4/0.2 mL/well with the growth medium. After 24 hours incubation, the culture medium was replaced with a growth medium (differentiation medium) containing 50 μg/mL ascorbic acid, 10 mmol/L β-glycerophosphoric acid, and 10 nmol/L dexamethasone. At the same time, CS-A, CS-C or CS-D dissolved and diluted by a phosphate buffered saline (PBS (−)) was added to the medium. After 10 days passed from when the medium was replaced with the differentiation medium, a culture supernatant was eliminated, the cell was rinsed by PBS (−), and dissolved by 1% NP-40 (registered trademark), and a cell lysate was collected. The cell on the plate was fixed by 15% formalin, a calcified matrix was dyed by 40 mmol/L alizarin red dyeing (pH 4.2) liquid, and then rinsed by pure water. Alizarin red pigments in the plate were dissolved by 10% formic acid, and light absorption at a wavelength of 415 nm was observed.

[2] = test system: osteoblastic cell strain MC3T3-E1; experiment: Alkaline phosphatase (ALP) activity of cultured osteoblastic cell; type: cell-based, mouse; details: MC3T3-E1, differentiation medium, 8 days, p-NP amount (FIG. 3)
Protocol: An osteoblastic cell strain MC3T3-E1 was cultured on α-MEM (growth medium) containing 5% FBS and 10 μg/mL gentamicin. When the cell became confluent, the cell was collected by 0.25 trypsin solution, and was subjected to seeding to a 48-well plate at 8×10^4/0.5 mL/well with the growth medium. After 24 hours incubation, the culture medium was replaced with a growth medium (differentiation medium) containing 50 μg/mL ascorbic acid, 10 mmol/L β-glycerophosphoric acid, and 10 nmol/L dexamethasone. At the same time, CS-C or CS-E used in the first example was dissolved and diluted by a phosphate buffered saline (PBS (−)), and then added to the medium. After 8 days passed from when the medium was replaced with the differentiation medium, a culture supernatant was eliminated, the cell was rinsed by PBS (−), and dissolved by 1% NP-40 (registered trademark), and a cell lysate was collected.
Regarding alkaline phosphatase (ALP) activity, a p-nitrophenol (p-NP) amount created by mixing the cell lysate with p-nitrophenylphosphate (Sigma) and by performing incubation on it for 10 minutes at 37° C. was measured at OD 415 nm, and a p-NP amount was calculated from an analytical curve.

[3] = test system: osteoblastic cell strain MC3T3-E1; experiment: Growth of cultured osteoblastic cell (DNA amount, PicoGreen); type: cell-based, mouse; details: MC3T3-E1, differentiation medium, 16 days (FIG. 4)
Protocol: An osteoblastic cell strain MC3T3-E1 was cultured on α-MEM (growth medium) containing 5% FBS and 10 μg/mL gentamicin. When the cell became confluent, the cell was collected by 0.25% trypsin solution, and was subjected to seeding to a 96-well plate at 4×10^4/0.2 mL/well with the growth medium. After 24 hours incubation, the culture medium was replaced with a growth medium (differentiation medium) containing 50 μg/mL ascorbic acid, 10 mmol/L β-glycerophosphoric acid, and 10 nmol/L dexamethasone. At the same time, CS-A, CS-C, CS-D or CS-E used in the first example and the second example was dissolved and diluted by a phosphate buffered saline (PBS (−)), and then added to the medium. After 16 days passed from when the medium was replaced with the differentiation medium, a culture supernatant was eliminated, the cell was rinsed by PBS (−), and dissolved by 1% NP-40, and a cell lysate was collected.
Regarding a measurement of a DNA amount, PicoGreen dsDNA Quantitation kit (made by Molecular Probes corporation) was used, and a DNA amount was measured from a fluorescence intensity (Ex: wavelength 485 nm, Em: wavelength 535 nm) with a Calf Thymus DNA (Sigma) being as a standard.

MC3T3-E1 cell [4] = experiment: Calcification of osteoblastic cell cultured on calcium phosphate (OCP or HA coating); type: cell-based, mouse
Protocol: (§1) Octacalcium phosphate (OCP) and hydroxyapatite (HA, apaceram, made by pentax corporation) were broken into powders by a mortar, and powders which passed through a stainless mesh (pore size: 53 μm) were used for the test. 1 mg of OCP or HA powders were suspended in 1 mL of distilled water, and added to a 48-well plate 150 μL by 150 μL (0.15 mg/well). It was dried for one night at 80° C. by a dryer, sterilized by 70% ethanol, and used for the test.
(§2) An MC3T3-E1 cell was cultured on α-MEM (growth medium) containing 5% FBS and 10 μg/mL gentamicin. When the cell became confluent, the cell was collected by 0.25 trypsin solution, and was subjected to seeding to a 48-well plate at 8×10^4/0.5 […] with the growth medium. […] Regarding a measurement of a DNA amount, PicoGreen dsDNA Quantitation kit (made by Molecular Probes corporation) was used, and a DNA amount was measured from a fluorescence intensity (Ex: wavelength 485 nm, Em: wavelength 535 nm) with a Calf Thymus DNA (Sigma) being as a standard.
Regarding an evaluation of calcification, a calcified matrix produced by the cell on the plate was fixed by 15% formalin, dyed by 40 mmol/L alizarin red dyeing (pH 4.2) liquid, rinsed by deionization water, dissolved by 10% formic acid, and then light absorption was measured.

MC3T3-E1 cell [5] = experiment: Growth of osteoblastic cell cultured on calcium phosphate (OCP or HA coating), DNA amount; type: cell-based, mouse
Protocol: as §1
as §2, with “medium. After 24 hours incubation, the culture medium was replaced with a growth medium (differentiation medium) containing 50 μg/mL ascorbic acid, 10 mmol/L β-glycerophosphoric acid, and 10 nmol/L dexamethasone, while at the same time CS-E was added.” for “medium.”

[6] = test system: swine knee joint cartilage cell; experiment: Collagen synthesis of cultured cartilage cell in alginate gel beads (three-dimensional culturing); type: cell-based; details: 100 μg/mL
Source text: A cartilage cell was separated from a swine knee joint cartilage as follow. A posterior leg of an LWD-kind pig about 1-year-old was purchased from SIMODA animal industry limited private company. After a knee joint was exposed, a joint cartilage of a femur was acquired aseptically. Thereafter, a cell originating from a joint cartilage (hereinafter, “cartilage cell”) was separated in accordance with a technique of Mok S. S. et al (J. Biol. Chem., 1994, 269, 33021 to 33027) while modifying some parts of such a technique.
The acquired cartilage was put into DMEM/F-12 culture medium (a culture medium which contained Dulbecco's modified eagle and Ham's F12 at 1:1) containing 0.4% actinase (made by KAKEN pharmaceutical corporation) and 10 μg/mL gentamicin (made by Invitrogen corporation), and processed for 1 hour at 37° C. while being stirred by a stirrer under a condition where 5% of CO2 was present. After the culture medium was eliminated, a culture media containing 0.025% collagenase (made by Roche corporation) and 5% FBS (made by Biological Industries corporation) was added to a residue, and it was digested for 16 hours at 37° C. under the presence of 5% of CO2. After digested, the cell was rinsed, collected by 70 μm cell strainer (made by Becton Dickinson corporation), and a number of cells were measured using a counting chamber. […]

[7] = 16th day of cultivation, 48-well plate, absorption 415 nm (FIG. 1)
[8] = 10 days, 96-well plate, absorption 415 nm (FIG. 2)

Substance	formation of a calcified matrix dyed by alizarin red [1, 7]	formation of a calcified matrix dyed by alizarin red [1, 8]	growth of an osteoblastic cell (DNA amount) [3]	also measured
polysulfated chondroitin sulfate [CPS]	significantly promoted			
chondroitin sulfate H [CS-H]	significantly promoted			
chondroitin sulfate B [CS-B]	not observed			
chondroitin sulfate C [CS-C, reference compound]	not observed	not observed	not observed	ALP activity (osteoblastic cell differentiation marker) [2]: not observed
Chondroitin sulfate A [CS-A]	not observed	not observed	not observed	
chondroitin sulfate D [CS-D]		significantly promoted	not observed	
chondroitin sulfate E [CS-E]	significantly promoted		significantly promoted	ALP activity (osteoblastic cell differentiation marker) [2]: significantly enhanced; production of a calcified matrix dyed by alizarin red (MC3T3-E1 cell [4]; HA coating, 12th day of cultivation (FIG. 5B)): promoted production of a calcified matrix; production of a calcified matrix dyed by alizarin red (MC3T3-E1 cell [4]; OCP coating, 16th day of cultivation (FIG. 5A)): promoted production of a calcified matrix; growth of an osteoblastic cell (DNA amount) (MC3T3-E1 cell [5]; HA coating (FIG. 6B)): not significant but a cell growth promoting action was observed; growth of an osteoblastic cell (DNA amount) (MC3T3-E1 cell [5]; OCP coating, 16th day of cultivation (FIG. 6A)): significantly promoted; collagen content per twenty alginate gel beads ([6]; 6 days three-dimensional culturing (FIG. 7)): significantly increased; collagen content per DNA ([6]; 6 days three-dimensional culturing (FIG. 8)): significantly increased
